Laboratory results reported in patent US10508120B2, “TYK2 inhibitors and uses thereof” (Nimbus Lakshmi, Inc., priority 2017, dated 2019).
Where two headings read alike, the source gives them in different places.

How the values were obtained:
[1] = biological target: human TYK2 (JH2domain-pseudokinase) (Homo sapiens (Human), UniProt P29597); test: TYK2 JH2 Domain Binding Assay (KINOMEscan)
How it was run: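 The construct was human TYK2 G556–D888 fused to the NFkB DNA-binding domain and expressed in HEK293 cells; unpurified extract was incubated with compound and liganded beads for 1 hour at room temperature.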

[2] = biological target: Tyk2 kinase domain (DH1) (Homo sapiens (Human), UniProt P29597); test: Tyk2 Radioactive Kinase Assay; type: biochemical; conditions: for inhibition at 10 µM: read-out: Tyk2 JH1% Inhibition @ 10 μM
Tyk2 kinase domain (DH1), sequence (P29597 897-1176): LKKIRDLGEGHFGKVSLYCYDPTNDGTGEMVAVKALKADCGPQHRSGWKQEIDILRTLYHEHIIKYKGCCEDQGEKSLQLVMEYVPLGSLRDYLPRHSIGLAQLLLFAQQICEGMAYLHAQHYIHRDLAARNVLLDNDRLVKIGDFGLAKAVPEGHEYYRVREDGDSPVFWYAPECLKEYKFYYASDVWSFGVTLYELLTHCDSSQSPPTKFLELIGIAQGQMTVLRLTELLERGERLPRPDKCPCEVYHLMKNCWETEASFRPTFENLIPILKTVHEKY
How it was run: (§1)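 Compounds were tested at a single concentration of 10 μM in a radiometric kinase format against each isolated kinase domain. Activity is reported as percent inhibition at that concentration.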

[3] = biological target: JAK2 kinase domain (JH1) (Homo sapiens (Human), UniProt O60674); test: JAK2 Radioactive Kinase Assay; type: biochemical; conditions: for inhibition at 10 µM: read-out: JAK2 JH1% Inhibition @ 10 μM
JAK2 kinase domain (JH1), sequence (O60674 849-1124): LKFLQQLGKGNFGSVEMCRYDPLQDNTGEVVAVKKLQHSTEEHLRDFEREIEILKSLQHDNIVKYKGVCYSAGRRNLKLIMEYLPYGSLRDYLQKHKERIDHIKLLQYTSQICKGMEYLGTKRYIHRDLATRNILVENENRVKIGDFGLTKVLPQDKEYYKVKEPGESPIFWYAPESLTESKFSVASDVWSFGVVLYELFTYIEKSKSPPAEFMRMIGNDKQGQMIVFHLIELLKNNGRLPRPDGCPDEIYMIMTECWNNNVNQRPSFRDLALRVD
How it was run: as §1

[4] = biological target: Tyk2/JAK2 (heterodimeric complex) (Homo sapiens (Human), UniProt P29597); test: IL-12 Induced pSTAT4 in Human PBMC; type: cell-based; conditions: 1.7 ng/mL IL-12
Tyk2/JAK2 (heterodimeric complex), sequence (P29597 whole entry, other chains not shown): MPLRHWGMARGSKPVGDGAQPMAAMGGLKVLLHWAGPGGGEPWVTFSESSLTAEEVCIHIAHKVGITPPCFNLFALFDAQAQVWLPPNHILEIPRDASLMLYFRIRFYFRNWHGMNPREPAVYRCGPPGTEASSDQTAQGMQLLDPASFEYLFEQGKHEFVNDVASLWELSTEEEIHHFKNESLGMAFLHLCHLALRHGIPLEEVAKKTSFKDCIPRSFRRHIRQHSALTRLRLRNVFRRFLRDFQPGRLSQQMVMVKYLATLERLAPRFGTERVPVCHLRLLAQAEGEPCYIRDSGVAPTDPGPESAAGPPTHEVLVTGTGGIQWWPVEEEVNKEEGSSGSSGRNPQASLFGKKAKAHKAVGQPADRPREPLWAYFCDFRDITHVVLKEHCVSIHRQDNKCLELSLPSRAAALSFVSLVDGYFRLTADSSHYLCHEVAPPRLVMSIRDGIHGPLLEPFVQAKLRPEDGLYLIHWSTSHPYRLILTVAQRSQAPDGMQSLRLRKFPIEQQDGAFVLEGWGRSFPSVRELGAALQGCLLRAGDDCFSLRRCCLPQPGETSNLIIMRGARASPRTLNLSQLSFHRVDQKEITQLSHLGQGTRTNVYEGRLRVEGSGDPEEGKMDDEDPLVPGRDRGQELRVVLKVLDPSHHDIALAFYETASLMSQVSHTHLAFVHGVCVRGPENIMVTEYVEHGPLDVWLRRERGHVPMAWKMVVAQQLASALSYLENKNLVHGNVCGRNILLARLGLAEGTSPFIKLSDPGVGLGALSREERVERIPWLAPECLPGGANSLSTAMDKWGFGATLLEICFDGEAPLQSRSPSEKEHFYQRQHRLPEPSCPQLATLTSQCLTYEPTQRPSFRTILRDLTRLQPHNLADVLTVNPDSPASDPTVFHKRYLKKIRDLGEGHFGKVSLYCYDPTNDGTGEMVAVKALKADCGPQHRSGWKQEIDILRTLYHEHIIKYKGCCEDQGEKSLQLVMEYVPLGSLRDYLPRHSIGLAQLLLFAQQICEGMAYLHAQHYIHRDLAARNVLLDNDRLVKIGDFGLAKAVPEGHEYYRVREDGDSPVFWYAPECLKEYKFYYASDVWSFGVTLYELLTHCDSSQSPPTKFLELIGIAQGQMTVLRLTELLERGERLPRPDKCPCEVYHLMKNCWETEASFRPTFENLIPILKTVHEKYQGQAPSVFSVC
Description: The IL-12 Induced pSTAT4 assay evaluates the inhibition of IL-12 induced STAT4 phophorylation mediated by Tyk2/JAK2 (heterodimeric complex).

[5] = biological target: JAK2/JAK2 homdimeric complex (Homo sapiens (Human), UniProt O60674); test: GM-CSF Induced pSTAT5 in Human PBMC; type: cell-based; conditions: GM-CSF 5 ng/mL for 20 minutes, pSTAT5 by MSD, read-out: PBMC_GMCSF_pSTAT5 IC50
JAK2/JAK2 homdimeric complex, sequence (O60674 whole entry): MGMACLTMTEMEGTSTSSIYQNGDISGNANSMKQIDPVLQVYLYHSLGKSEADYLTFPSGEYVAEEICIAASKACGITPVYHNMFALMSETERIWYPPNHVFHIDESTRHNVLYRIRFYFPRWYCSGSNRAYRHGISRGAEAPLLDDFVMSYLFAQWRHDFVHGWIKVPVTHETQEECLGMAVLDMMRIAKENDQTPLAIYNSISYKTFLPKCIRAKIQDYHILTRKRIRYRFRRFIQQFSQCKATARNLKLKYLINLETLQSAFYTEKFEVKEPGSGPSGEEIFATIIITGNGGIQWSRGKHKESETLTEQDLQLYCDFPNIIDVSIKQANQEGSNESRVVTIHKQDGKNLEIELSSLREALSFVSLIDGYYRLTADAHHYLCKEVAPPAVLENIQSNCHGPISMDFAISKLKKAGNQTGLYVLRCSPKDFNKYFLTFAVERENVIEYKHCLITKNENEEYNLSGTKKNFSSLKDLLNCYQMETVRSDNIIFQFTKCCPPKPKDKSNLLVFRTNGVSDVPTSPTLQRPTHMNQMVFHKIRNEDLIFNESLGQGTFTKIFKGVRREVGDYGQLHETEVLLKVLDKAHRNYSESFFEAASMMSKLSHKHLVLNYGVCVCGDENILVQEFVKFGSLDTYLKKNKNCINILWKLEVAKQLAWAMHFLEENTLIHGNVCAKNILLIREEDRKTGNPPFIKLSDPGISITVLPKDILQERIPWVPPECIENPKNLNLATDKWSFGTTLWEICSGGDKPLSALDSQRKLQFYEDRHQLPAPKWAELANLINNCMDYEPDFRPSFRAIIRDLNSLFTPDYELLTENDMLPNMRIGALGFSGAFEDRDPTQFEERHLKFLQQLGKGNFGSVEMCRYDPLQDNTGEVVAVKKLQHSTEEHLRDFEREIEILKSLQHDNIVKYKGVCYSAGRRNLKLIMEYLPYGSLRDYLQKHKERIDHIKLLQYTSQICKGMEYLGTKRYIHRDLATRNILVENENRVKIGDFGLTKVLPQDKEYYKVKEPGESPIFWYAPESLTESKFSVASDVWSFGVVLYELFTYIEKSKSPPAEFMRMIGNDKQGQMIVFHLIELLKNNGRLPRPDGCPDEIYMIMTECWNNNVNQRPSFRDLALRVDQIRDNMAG
JAK2/JAK2 homdimeric complex, sequence (P32927 17-897 partner): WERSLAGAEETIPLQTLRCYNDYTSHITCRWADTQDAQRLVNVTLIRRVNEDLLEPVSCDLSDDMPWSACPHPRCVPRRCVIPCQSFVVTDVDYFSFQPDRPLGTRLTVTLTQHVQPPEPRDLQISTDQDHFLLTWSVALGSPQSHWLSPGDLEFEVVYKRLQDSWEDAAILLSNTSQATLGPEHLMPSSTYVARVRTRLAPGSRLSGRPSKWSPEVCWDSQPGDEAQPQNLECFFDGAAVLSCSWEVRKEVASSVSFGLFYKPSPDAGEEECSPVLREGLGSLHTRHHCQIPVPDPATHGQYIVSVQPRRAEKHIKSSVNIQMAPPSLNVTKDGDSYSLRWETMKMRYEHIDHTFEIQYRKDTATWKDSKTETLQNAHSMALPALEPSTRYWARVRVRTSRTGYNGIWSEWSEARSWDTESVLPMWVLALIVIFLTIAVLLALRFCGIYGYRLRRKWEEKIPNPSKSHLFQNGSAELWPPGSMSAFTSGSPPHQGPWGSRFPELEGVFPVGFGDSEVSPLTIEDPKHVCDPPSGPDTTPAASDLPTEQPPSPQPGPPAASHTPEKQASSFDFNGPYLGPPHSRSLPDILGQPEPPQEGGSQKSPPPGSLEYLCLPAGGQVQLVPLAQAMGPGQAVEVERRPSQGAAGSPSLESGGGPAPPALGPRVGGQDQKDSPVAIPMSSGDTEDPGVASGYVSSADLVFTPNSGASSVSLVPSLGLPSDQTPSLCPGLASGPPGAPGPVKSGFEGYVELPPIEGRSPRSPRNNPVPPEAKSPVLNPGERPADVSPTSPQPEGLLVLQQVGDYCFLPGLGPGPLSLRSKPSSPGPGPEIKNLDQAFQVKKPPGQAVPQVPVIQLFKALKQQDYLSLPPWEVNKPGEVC

human TYK2 (JH2domain-pseudokinase), sequence (P29597 556-888): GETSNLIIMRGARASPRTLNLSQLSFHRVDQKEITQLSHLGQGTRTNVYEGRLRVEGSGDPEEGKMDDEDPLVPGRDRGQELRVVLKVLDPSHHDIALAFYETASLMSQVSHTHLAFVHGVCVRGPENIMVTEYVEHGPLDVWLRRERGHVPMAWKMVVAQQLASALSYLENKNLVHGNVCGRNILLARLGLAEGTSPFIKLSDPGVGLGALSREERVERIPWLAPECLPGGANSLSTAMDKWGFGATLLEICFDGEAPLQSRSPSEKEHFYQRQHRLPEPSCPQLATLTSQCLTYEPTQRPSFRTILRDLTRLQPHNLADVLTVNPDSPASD

Row | Structure (SMILES) | Kd [1] [µM] | inhibition at 10 µM ([2]; compound at 10 μM, ATP 10 μM) [%] | inhibition at 10 µM ([3]; compound at 10 μM, ATP 10 μM) [%] | IC50 [4] [µM] | IC50 [5] [µM] | inhibition at 10 µM ([2]; 10 μM compound, 10 μM ATP) [%] | inhibition at 10 µM ([3]; 10 μM compound, 10 μM ATP) [%] | Tyk2 JH1% Inhibition @ 10 μM ([2]; compound at 10 μM, ATP 10 μM) | JAK2 JH1% Inhibition @ 10 μM ([3]; compound at 10 μM, ATP 10 μM) | Tyk2 JH1% Inhibition @ 10 μM ([2]; 10 μM compound, 10 μM ATP) | JAK2 JH1% Inhibition @ 10 μM ([3]; 10 μM compound, 10 μM ATP)
1 | CNc1cc(Nc2cccn(-c3nc(C)co3)c2=O)nc2c(C(=O)NC3CC3)cnn12 [I-368] | < 0.0002 | < 50 | < 50 | < 0.1 | > 12.5 |  |  |  |  |  | 
2 | [2H]C([2H])([2H])Oc1ncccc1Nc1cc(NC)n2ncc(C(=O)N[C@@H]3CC[C@@H]3O)c2n1 (stereo in doubt) [I-391, N-(2-hydroxycyclobutyl)-5-((2-(methoxy-d3)pyridin-3-yl)amino)-7-(methylamino)pyrazolo [1,5-a]pyrimidine-3-carboxamide] | < 0.0002 | < 50 | < 50 | < 0.1 | > 50 |  |  |  |  |  | 
3 | CCONC(=O)c1cnn2c(NC)cc(Nc3cccnc3OC)nc12 [I-409, N-ethoxy-5-((2-methoxypyridin-3-yl)amino)-7-(methylamino)pyrazolo[1,5-a]pyrimidine-3-carboxamide] | < 0.0002 | < 50 | < 50 | < 0.1 | > 12.5 |  |  |  |  |  | 
4 | CNc1cc(Nc2cccc([C@@H]3CCCOC3)n2)nc2c(C(=O)N[C@@H]3CC[C@H]3O)cnn12 [I-665] | < 0.0002 | < 50 | 50 to 70 | < 0.1 | > 2.5 |  |  |  |  |  | 
5 | CNc1cc(Nc2cccnc2OCCOC)nc2c(C(=O)NC3CCC3)cnn12 [I-219] | < 0.0002 | < 50 | < 50 | < 0.1 | > 12.5 |  |  |  |  |  | 
6 | [2H]C([2H])([2H])Oc1ncc(F)cc1Nc1cc(NC)n2ncc(C(=O)NC3CCC3)c2n1 [I-288] | < 0.0002 | < 50 | < 50 | < 0.1 | > 2.5 |  |  |  |  |  | 
7 | CNc1cc(Nc2cccc([C@H]3CCCOC3)n2)nc2c(C(=O)N[C@H]3C[C@H]3F)cnn12 [I-563] | < 0.0002 | < 50 | < 50 | < 0.1 | > 50 |  |  |  |  |  | 
8 | CNc1cc(Nc2cccn(-c3cccc(C(C)(C)O)n3)c2=O)nc2c(C(=O)N[C@H]3C[C@H]3F)cnn12 [I-123] | < 0.0002 | < 50 | < 50 | < 0.1 | > 50 |  |  |  |  |  | 
9 | CNc1cc(Nc2cccn([C@@H]3CCCOC3)c2=O)nc2c(C(=O)N[C@H]3CC[C@H]3O)cnn12 [I-751] | < 0.0002 | < 50 | < 50 | < 0.1 | > 12.5 |  |  |  |  |  | 
10 | CNc1cc(Nc2cccn([C@H]3CCCOC3)c2=O)nc2c(C(=O)NC3CC3)cnn12 [I-352] | < 0.0002 | < 50 | < 50 | < 0.1 | > 50 |  |  |  |  |  | 
11 | CNc1cc(Nc2cc(F)cn(-c3ccccn3)c2=O)nc2c(C(=O)NC3CCC3)cnn12 [I-193] | 0.0002 to 0.001 | < 50 | < 50 | < 0.1 | > 12.5 |  |  |  |  |  | 
12 | CNc1cc(Nc2cc(Cl)cn(-c3cnc(C(=O)N(C)C)cn3)c2=O)nc2c(C(=O)NC3CC3)cnn12 [I-318] | < 0.0002 | < 50 | < 50 | < 0.1 | > 2.5 |  |  |  |  |  | 
13 | CNc1cc(Nc2cccn([C@H]3CC[C@@H](OC)CC3)c2=O)nc2c(C(=O)N[C@H]3C[C@H]3F)cnn12 [I-357] | < 0.0002 | < 50 | < 50 | < 0.1 | > 2.5 |  |  |  |  |  | 
14 | CNc1cc(Nc2cccnc2OC2CC2)nc2c(C(=O)NCC(C)(C)CO)cnn12 [I-350] | < 0.0002 | < 50 | < 50 | < 0.1 | > 50 |  |  |  |  |  | 
15 | CNc1cc(Nc2cccnc2OC)nc2c(C(=O)N[C@H]3CC[C@H]3O)cnn12 [I-429] | < 0.0002 | < 50 | < 50 | < 0.1 | > 50 |  |  |  |  |  | 
16 | CNc1cc(Nc2cc(Cl)cn(-c3cc(C)n(C)n3)c2=O)nc2c(C(=O)N[C@H]3C[C@H]3F)cnn12 [I-315] | < 0.0002 | < 50 | < 50 | < 0.1 | > 12.5 |  |  |  |  |  | 
17 | CNc1cc(Nc2cccn(-c3cnn(C)c3)c2=O)nc2c(C(=O)N[C@H]3C[C@H]3F)cnn12 [I-296] | < 0.0002 | < 50 | < 50 | < 0.1 | > 50 |  |  |  |  |  | 

Row | Structure (SMILES) | Kd [1] [µM] | inhibition at 10 µM ([2]; compound at 10 μM, ATP 10 μM) [%] | inhibition at 10 µM ([3]; compound at 10 μM, ATP 10 μM) [%] | IC50 [4] [µM] | IC50 [5] [µM] | inhibition at 10 µM ([2]; 10 μM compound, 10 μM ATP) [%] | inhibition at 10 µM ([3]; 10 μM compound, 10 μM ATP) [%] | Tyk2 JH1% Inhibition @ 10 μM ([2]; compound at 10 μM, ATP 10 μM) | JAK2 JH1% Inhibition @ 10 μM ([3]; compound at 10 μM, ATP 10 μM) | Tyk2 JH1% Inhibition @ 10 μM ([2]; 10 μM compound, 10 μM ATP) | JAK2 JH1% Inhibition @ 10 μM ([3]; 10 μM compound, 10 μM ATP)
18 | CNc1cc(Nc2cc(F)cn(-c3ccn(C)n3)c2=O)nc2c(C(=O)NC3CC3)cnn12 [I-378] | < 0.0002 | < 50 | < 50 | < 0.1 | > 12.5 |  |  |  |  |  | 
19 | CNc1cc(Nc2cccn(-c3ccc(OC)cn3)c2=O)nc2c(C(=O)NC3CCC3)cnn12 [I-266] | < 0.0002 | < 50 | < 50 | < 0.1 | > 12.5 |  |  |  |  |  | 
20 | CNc1cc(Nc2cccnc2OC2CC2)nc2c(C(=O)NCC3(CO)CC3)cnn12 [I-426] | < 0.0002 | < 50 | < 50 | < 0.1 | > 50 |  |  |  |  |  | 
21 | [2H]C([2H])([2H])Oc1ncccc1Nc1cc(NC)n2ncc(C(=O)N[C@H]3C[C@H]3F)c2n1 [I-177] | < 0.0002 | < 50 | < 50 | < 0.1 | > 12.5 |  |  |  |  |  | 
22 | CNc1cc(Nc2cccn(C3CCCN(CCF)C3)c2=O)nc2c(C(=O)N[C@@H]3C[C@@H]3F)cnn12 (some centres unmarked) [I-849] | < 0.0002 |  |  | 0.1 to 0.5 | > 50 | < 50 | < 50 |  |  |  | 
23 | CNc1cc(Nc2cccc([C@@H]3CCCOC3)n2)nc2c(C(=O)N[C@H]3CC[C@@H]3O)cnn12 [I-603] | < 0.0002 | 50 to 70 | 50 to 70 | < 0.1 | > 2.5 |  |  |  |  |  | 
24 | [2H]C([2H])([2H])Oc1ncccc1Nc1cc(NC)n2ncc(C(=O)N[C@H]3CC[C@@H]3O)c2n1 [I-411] | < 0.0002 |  |  | < 0.1 | > 50 |  |  | A (percent inhibition at 10 μM lower than 50) | A (percent inhibition at 10 μM lower than 50) |  | 
25 | CNc1cc(Nc2cc(Cl)cn(C3CCCN(C)C3)c2=O)nc2c(C(=O)NC3CC3)cnn12 (centres unmarked) [I-740] | < 0.0002 | < 50 | < 50 | < 0.1 | > 2.5 |  |  |  |  |  | 
26 | CNc1cc(Nc2cc(C)cn(-c3cnn(C)c3)c2=O)nc2c(C(N)=O)cnn12 [I-31] | < 0.0002 | < 50 | < 50 | 0.1 to 0.5 | > 0.3 |  |  |  |  |  | 
27 | CNc1cc(Nc2cccc(N3CCOC3=O)n2)nc2c(C(=O)NC3CCC3)cnn12 [I-105] | < 0.0002 | < 50 | 50 to 70 | < 0.1 | > 12.5 |  |  |  |  |  | 
28 | CNc1cc(Nc2cccn(C3CCN(CCF)CC3)c2=O)nc2c(C(=O)N[C@H]3C[C@H]3F)cnn12 [I-570] | < 0.0002 | < 50 | < 50 | < 0.1 | > 50 |  |  |  |  |  | 
29 | CNc1cc(Nc2cccc3ocnc23)nc2c(C(=O)N[C@@H]3CC[C@H]3O)cnn12 [I-857] |  |  |  | 0.1 to 0.5 | > 50 | < 50 | < 50 |  |  |  | 
30 | CNc1cc(Nc2cccn([C@H]3CC[C@@H]3O)c2=O)nc2c(C(=O)N[C@@H]3C[C@@H]3F)cnn12 [I-916] |  |  |  | < 0.1 | > 50 | < 50 | < 50 |  |  |  | 
31 | CNc1cc(Nc2cccn(C3CCCCC3)c2=O)nc2c(C(=O)N[C@@H]3CC[C@H]3O)cnn12 [I-943] |  |  |  | < 0.1 | > 50 | < 50 | < 50 |  |  |  | 
32 | CNc1cc(-c2cn(C3CC3)c3ncccc23)nc2c(C(=O)N[C@H]3CC[C@H]3O)cnn12 [I-992, 5-(1-cyclopropyl-1H-pyrrolo[2,3-b]pyridin-3-yl)-N-((1S,2R)-2-hydroxycyclobutyl)-7-(methylamino)pyrazolo[1,5-a]pyrimidine-3-carboxamide] |  |  |  | < 0.1 | > 50 |  |  |  |  | A (percent inhibition at 10 μM lower than 50) | A (percent inhibition at 10 μM lower than 50)
33 | CNc1cc(Nc2cccn([C@@H]3CCC[C@H](OC)C3)c2=O)nc2c(C(=O)N[C@@H]3CC[C@H]3OC)cnn12 [I-995] |  |  |  | < 0.1 | > 50 |  |  |  |  | A (percent inhibition at 10 μM lower than 50) | A (percent inhibition at 10 μM lower than 50)
34 | CNc1cc(Nc2cccn([C@@H]3CCC[C@H](OC)C3)c2=O)nc2c(C(=O)NC3CC3)cnn12 [I-621] |  |  |  | < 0.1 | > 50 |  |  | A (percent inhibition at 10 μM lower than 50) | A (percent inhibition at 10 μM lower than 50) |  | 
